The values below come from patent publication US5300672A (priority 1992, dated 1994).

Like-named read-outs stand apart in the source and are kept apart here.

One experiment has as its system Pseudomonas fluorescens. Nature of the experiment: Alternate Minimum Inhibitory Concentrations Test (Table 4), Ps.fl. As to conditions: Table 4 alternate test, 250 ppm to 0.8 ppm in TSB, 72 hours, 30° C.; for MIC: Pseudomonas fluorescens, read-out: MIC Ps.fl. Format: cell-based. Put shortly: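 MIC taken as lowest concentration showing no growth after 72 h incubation at 30 °C in TSB. Twofold dilution series spanned 250 down to 0.8 ppm, wells inoculated with phosphate-buffer-diluted 24 h culture.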

The test system of experiment [1] is Erysiphe graminis (f. sp. tritici). Kind of experiment: whole plant or invertebrate. It is filed as in vivo.
For experiment [2], the system named is Pellicularia filamentosa (f. sp. sasiki). Nature of the experiment: whole plant or invertebrate. Format: in vivo.
Experiment [3] concerns Puccinia graminis (f. sp. tritici Race 15B-2). Kind of experiment: whole plant or invertebrate. It is filed as in vivo. The conditions noted are these: for pest or weed control at 200 ppm / pest or weed control at 100 ppm: Puccinia graminis, 336 h, read-out: % Control WSR.
Another experiment has as its system Piricularia oryzae. Nature of the experiment: whole plant or invertebrate. It is filed as in vivo. The conditions noted are these: for pest or weed control at 100 ppm: read-out: % Control RB, application rate 100 ppm; for pest or weed control at 200 ppm: read-out: % Control RB, application rate 200 ppm.
Experiment [4] has as its system Puccinia recondita (f. sp. tritici Races PKB and PLD). Kind of experiment: whole plant or invertebrate. Format: in vivo.
A further experiment relates to Phytophthora infestans. Nature of the experiment: whole plant or invertebrate. It is filed as in vivo. The conditions noted are these: for pest or weed control at 100 ppm / pest or weed control at 25 ppm / pest or weed control at 200 ppm: Phytophthora infestans, in Solanum lycopersicum, 96 h; for pest or weed control at 25 ppm: read-out: % Control TLB, application rate 25 ppm.

Experiment [5] deals with Pseudoperonospora cubensis. Kind of experiment: whole plant or invertebrate. Format: in vivo.
Where [6] appears, read: Blumeria graminis, read-out: % Control WPM.
Where [7] appears, read: Puccinia recondita, 240 h, read-out: % Control WLR.
The mark [8] stands for this setting: Pseudoperonospora cubensis, in Cucumis sativus, 168 h, read-out: % Control CDM.
Setting [9] is: read-out: % Control TLB, application rate 100 ppm.

As usually defined, the MIC is the least concentration at which growth counts as inhibited. Turning to `CCCCCCCCNC(=O)/C=C\SC(=O)c1ccc([N+](=O)[O-])o1` [Compound 17, N-octyl-cis-3-[(5-nitro-2-furoyl)thio]acrylamide], the MIC with Pseudomonas fluorescens was greater than 250 µg/mL. Also, the pest or weed control at 100 ppm in experiment [1] (setting [6]) was found to be 0%; in experiment [2] (120 h, read-out: % Control RSB), 0%; with Piricularia oryzae (Pyricularia oryzae), 80%; in experiment [4] (setting [7]), 0%; with Phytophthora infestans (read-out: % Control TLB) it was 90%. Also, the pest or weed control at 200 ppm in experiment [3] was 95%. Besides, in experiment [5] (setting [8]), the pest or weed control at 50 ppm is 50%.
As for `CCCCCCCCNC(=O)/C=C\SC(=O)c1cc(Cl)sc1Cl` [Compound 18, N-octyl-cis-3-[(2,5-dichloro-3-thiophene)carbonylthio]acrylamide], the minimum inhibitory concentration (MIC) in the experiment with Pseudomonas fluorescens is greater than 250 µg/mL. Besides, the pest or weed control at 100 ppm in experiment [1] (setting [6]) amounted to 0%; in experiment [2] (120 h, read-out: % Control RSB) it was 0%; with Piricularia oryzae (Pyricularia oryzae) it was 50%; in experiment [4] (setting [7]), 0%. The pest or weed control at 200 ppm in experiment [3] worked out at 50%. In addition, the pest or weed control at 25 ppm in the experiment on Phytophthora infestans worked out at 100%. Also, the pest or weed control at 50 ppm in experiment [5] (setting [8]) amounted to 70%.
On to `CCCCCCCCNC(=O)/C=C\SC(=O)c1cccc(CCl)c1` [Compound 22, N-octyl-cis-3-[(3-(chloromethyl)benzoyl)thio]acrylamide], for which the MIC in the experiment on Pseudomonas fluorescens was greater than 250 µg/mL. For the same compound, the pest or weed control at 100 ppm in experiment [1] (setting [6]) came to 0%; in experiment [2] (120 h, read-out: % Control RSB), 0%; in the experiment on Piricularia oryzae (Pyricularia oryzae), 0%; in experiment [4] (setting [7]), 0%. Also, the pest or weed control at 200 ppm in experiment [3] came out at 75%. In addition, the pest or weed control at 25 ppm in the experiment with Phytophthora infestans turned out to be 95%. Besides, in experiment [5] (setting [8]), the pest or weed control at 50 ppm was 99%.
With `CCCCCCCCNC(=O)/C=C\SC(=O)C(C)(C)C` [Compound 25, N-octyl-cis-3-[(1,1-dimethylpropanoyl)thio]acrylamide], the MIC in the experiment on Pseudomonas fluorescens was greater than 250 µg/mL. In addition, the pest or weed control at 100 ppm came to 0% in experiment [1] (setting [6]); 0% in experiment [2] (120 h, read-out: % Control RSB); 90% in experiment [3]; 0% in the experiment on Piricularia oryzae (Pyricularia oryzae); 0% in experiment [4] (setting [7]); 100% in the experiment with Phytophthora infestans (setting [9]). Further, in experiment [5] (setting [8]), the pest or weed control at 50 ppm came to 85%.
`CCCCCCCCNC(=O)/C=C\SC(=O)COc1ccccc1` [Compound 26, N-octyl-cis-3-(phenoxyacetylthio)acrylamide]: the MIC in the experiment with Pseudomonas fluorescens was greater than 250 µg/mL. For the same compound, the pest or weed control at 100 ppm in experiment [1] (setting [6]) stood at 0%; in experiment [2] (120 h, read-out: % Control RSB), 0%; in experiment [3], 90%; in the experiment with Piricularia oryzae (Pyricularia oryzae), 80%; in experiment [4] (setting [7]), 0%; in the experiment with Phytophthora infestans (read-out: % Control TLB) it was 90%. Moreover, the pest or weed control at 50 ppm in experiment [5] (setting [8]) was found to be 85%.
For the compound `CCCCCCCCNC(=O)/C=C\SC(=O)CCCCl` [Compound 29, N-octyl-cis-3-[(4-chlorobutanoyl)thio]acrylamide], the MIC in the experiment on Pseudomonas fluorescens is greater than 250 µg/mL. Moreover, the pest or weed control at 100 ppm in experiment [1] (setting [6]) was 0%; in experiment [2] (120 h, read-out: % Control RSB), 0%; in experiment [4] (setting [7]), 0%; in the experiment with Phytophthora infestans (read-out: % Control TLB), 90%. In addition, the pest or weed control at 200 ppm (in experiment [3]; with Piricularia oryzae (Pyricularia oryzae)) was 75% each time. Besides, the pest or weed control at 50 ppm in experiment [5] (setting [8]) came to 85%.
As to `CCCCCCCCNC(=O)/C=C\SC(=O)C(=O)OC` [Compound 30, N-octyl-cis-3-(methyloxalylthio)acrylamide], the MIC with Pseudomonas fluorescens was greater than 250 µg/mL. For the same compound, the pest or weed control at 100 ppm in experiment [1] (setting [6]) was 0%; in experiment [2] (120 h, read-out: % Control RSB) it was 0%; in the experiment with Piricularia oryzae (Pyricularia oryzae), 0%; in the experiment on Phytophthora infestans (read-out: % Control TLB), 80%. Besides, the pest or weed control at 200 ppm in experiment [3] was 75%. The pest or weed control at 25 ppm in experiment [4] (setting [7]) worked out at 50%. Further, the pest or weed control at 50 ppm in experiment [5] (setting [8]) stood at 70%.
On to `CCCCCCCCNC(=O)/C=C\SCc1ccc(C(F)(F)F)cc1` [Compound 33, N-octyl-cis-3-[(4-(trifluoromethyl)benzyl)thio]acrylamide], for which, in the experiment on Pseudomonas fluorescens, the MIC is greater than 250 µg/mL. Besides, the pest or weed control at 100 ppm is 85% in experiment [1] (setting [6]); 0% in experiment [2] (120 h, read-out: % Control RSB); 0% in experiment [4] (setting [7]); 80% in the experiment with Phytophthora infestans (read-out: % Control TLB). In addition, the pest or weed control at 200 ppm in experiment [3] came to 75%. In addition, in the experiment on Piricularia oryzae (Pyricularia oryzae, read-out: % Control RB, application rate 25 ppm), the pest or weed control at 25 ppm stood at 80%. In experiment [5] (setting [8]), the pest or weed control at 50 ppm turned out to be 50%.
In the case of `CCCCCCCCNC(=O)C=CSC(CO)COc1ccccc1` (stereo not drawn) [Compound 40, N-octyl-cis-3-[(1-hydroxy-3-phenoxy-2-propane)thio]acrylamide], in the experiment on Pseudomonas fluorescens, the “MIC Ps.fl” value is greater than 250 Ppm. The “% Control WPM” value in experiment [1] (in vivo) is 50 % Control. In addition, in experiment [2] (in vivo), the “% Control RSB” value was determined as 0 % Control. Besides, the “% Control WSR” value in experiment [3] (application rate 200 ppm) is listed as 75 % Control. The “% Control RB” value in the experiment with Piricularia oryzae (in vivo) came to 75 % Control. For the same compound, the “% Control WLR” value in experiment [4] (in vivo) is reported as 0 % Control. Also, the “% Control TLB” value in the experiment on Phytophthora infestans (application rate 100 ppm) was 95 % Control. The “% Control CDM” value in experiment [5] (in vivo) came out at 85 % Control.
As for `CCCCCCCCNC(=O)/C=C\SC(=O)C(C)(C)CCl` [Compound 44, N-octyl-cis-3-[(2,2-dimethyl-3-chloropropanoyl)thio]acrylamide], the MIC in the experiment on Pseudomonas fluorescens is greater than 250 µg/mL. Also, the pest or weed control at 200 ppm in experiment [1] (setting [6]) turned out to be 0%; in experiment [2] (120 h, read-out: % Control RSB), 0%; in the experiment with Piricularia oryzae (Pyricularia oryzae) it was 0%; in experiment [4] (setting [7]), 0%; in the experiment with Phytophthora infestans (read-out: % Control TLB) it was 90%; in experiment [5] (setting [8]) it was 0%. Besides, the pest or weed control at 100 ppm in experiment [3] stood at 0%.
For the compound `CCCCCCCCNC(=O)/C=C\SC(=O)CCC(=O)OC` [Compound 51, N-octyl-cis-3-[(3-methoxycarbonylpropanoyl)thio]acrylamide], in the experiment on Pseudomonas fluorescens, the MIC is greater than 250 µg/mL. The pest or weed control at 100 ppm in experiment [1] (setting [6]) worked out at 0%; in experiment [4] (setting [7]), 0%; in the experiment on Phytophthora infestans (read-out: % Control TLB), 80%. In addition, the pest or weed control at 25 ppm in experiment [2] (120 h, read-out: % Control RSB) was found to be 90%. In addition, the pest or weed control at 200 ppm stood at 90% in experiment [3] and 0% with Piricularia oryzae (Pyricularia oryzae). Moreover, the pest or weed control at 50 ppm in experiment [5] (setting [8]) stood at 85%.
Take `CCCCCCCCNC(=O)/C=C\SC(=O)CCC(=O)OCC` [Compound 52, N-octyl-cis-3-[(3-ethoxycarbonylpropanoyl)thio]acrylamide]: in the experiment with Pseudomonas fluorescens, the MIC is greater than 250 µg/mL. Also, the pest or weed control at 100 ppm worked out at 0% in experiment [1] (setting [6]); 0% in experiment [2] (120 h, read-out: % Control RSB); 0% in experiment [4] (setting [7]); 80% with Phytophthora infestans (read-out: % Control TLB). The pest or weed control at 200 ppm in experiment [3] was determined as 90%; with Piricularia oryzae (Pyricularia oryzae), 0%. Also, the pest or weed control at 50 ppm in experiment [5] (setting [8]) stood at 70%.
As for `CCCCCCCCNC(=O)/C=C\SC(=O)c1cccnc1` [Compound 55, N-octyl-cis-3-[(3-pyridine)carbonylthio]acrylamide], the MIC in the experiment on Pseudomonas fluorescens was greater than 250 µg/mL. The pest or weed control at 100 ppm in experiment [1] (setting [6]) came to 50%; in experiment [2] (120 h, read-out: % Control RSB), 0%; in experiment [4] (setting [7]), 0%; in the experiment on Phytophthora infestans (setting [9]) it was 95%. Also, the figures for the pest or weed control at 200 ppm (in experiment [3]; in the experiment on Piricularia oryzae (Pyricularia oryzae)) were 90% and 0%, respectively. Moreover, the pest or weed control at 12 ppm in experiment [5] (setting [8]) is 70%.
Take `CCCCCCCCNC(=O)/C=C\SC(=O)c1ccc2ccccc2c1` [Compound 56, N-octyl-cis-3-[(2-naphthanoyl)thio]acrylamide]: in the experiment on Pseudomonas fluorescens, the MIC was greater than 250 µg/mL. Besides, the pest or weed control at 200 ppm in experiment [1] (setting [6]) worked out at 0%; in experiment [3] it was 75%; in the experiment with Piricularia oryzae (Pyricularia oryzae), 0%; in experiment [4] (setting [7]), 0%; in the experiment on Phytophthora infestans (read-out: % Control TLB), 80%. Moreover, the pest or weed control at 50 ppm in experiment [2] (120 h, read-out: % Control RSB) was determined as 80%. Moreover, the pest or weed control at 12 ppm in experiment [5] (setting [8]) came out at 50%.
For `CCCCCCCCNC(=O)/C=C\SC(=O)/C=C/C(=O)OCC` [Compound 57, N-octyl-cis-3-[(trans-3-ethoxycarbonyl-2-propenoyl)thio]acrylamide], the MIC in the experiment on Pseudomonas fluorescens was greater than 250 µg/mL. The pest or weed control at 12 ppm in experiment [1] (setting [6]) came to 50%. The pest or weed control at 200 ppm in experiment [2] (120 h, read-out: % Control RSB) stood at 0%; in experiment [3], 90%; in the experiment with Piricularia oryzae (Pyricularia oryzae) it was 75%; in experiment [4] (setting [7]) it was 25%; in the experiment with Phytophthora infestans (read-out: % Control TLB), 90%. For the same compound, in experiment [5] (setting [8]), the pest or weed control at 50 ppm was 70%.
Consider `C/C=C/C=C/C(=O)S/C=C\C(=O)NCCCCCCCC` [Compound 59, N-octyl-cis-3-[(trans,trans-2,4-hexadienoyl)thio]acrylamide], for which, in the experiment on Pseudomonas fluorescens, the MIC was greater than 250 µg/mL. For the same compound, the pest or weed control at 200 ppm in experiment [1] (setting [6]) was found to be 0%; in experiment [3] it was 50%; in the experiment on Piricularia oryzae (Pyricularia oryzae), 0%; in experiment [4] (setting [7]) it was 0%; in the experiment with Phytophthora infestans (read-out: % Control TLB), 80%. For the same compound, the pest or weed control at 50 ppm in experiment [2] (120 h, read-out: % Control RSB) is 50%; in experiment [5] (setting [8]), 70%.
